Patent US20100204152A1, “USE OF GLUTEN EXORPHIN C : AS A THERAPEUTIC AGENT” (priority 2007, published 2010)
Where no end group is shown, it is not given here.

Key:
HCMV strain AD169 = assay: HCMV plaque formation assay in MRC-5 cells; conditions: for inhibition of HCMV plaque formation as compared to the virus control: 10 micrograms per ml, 7-10 days
[1] = test system: hepatitis B virus (HBV) ayw strain in HepG2-2.2.15 cells; assay: HBV experimental assay system (secreted HBV DNA, TaqMan PCR); assay type: cell-based; conditions: 10 micrograms per ml, six days, HBV DNA by TaqMan PCR
Text: HepG2-2.2.15 is a stable cell line containing the hepatitis B virus (HBV) ayw strain genome (ATCC Cat. No. CRL-11997). Antiviral compounds blocking any late step of viral replication such as transcription, translation, pregenome encapsidation, reverse transcription, particle assembly and release can be identified and characterized using this cell line. In this assay, an active compound will reduce the production of secreted HBV from cells, measured by utilizing real time quantitative PCR (TaqMan) assay to directly and accurately measure HBV DNA copies.
HepG2-2.2.15 cells were plated in 96-well microtiter plates. After 16-24 hours the confluent monolayer of HepG2-2.2.15 cells was washed and the medium was replaced with complete medium containing test peptides—10 micrograms per ml—in duplicate. […] Six days following the initial administration of the peptides, the cell culture supernatants was collected, treated with pronase and DNAse and then used in a real-time quantitative TaqMan PCR assay. The PCR-amplified HBV DNA was detected in real-time by monitoring increases in fluorescence signals that result from the exonucleolytic degradation of a quenched fluorescence probe molecule that hybridizes to the amplified HBV DNA. […] Antiviral activity was calculated from the reduction in HBV DNA levels (% virus control). […]

RAW 264.7 cells = assay: Phagocytosis assay; assay type: cell-based, mouse; conditions: 10 micrograms per ml, Fluorescein-labeled Escherichia coli, flow cytometry
spleen cells = assay: Th1/Th2 cytokine profiling assay; assay type: cell-based, Balb/c mice; conditions: 10 micrograms per ml; Ovalbumin restimulation; 72 hours; supernatant
Text: The Balb/c mice (originated in 1923, it is a popular strain and is used in many different research disciplines. Also classified as an inbred from the production of 20 or more successive brother-sister matings, the Balb/c mouse is albino and small in size) were immunized on Days 1, 15, and 29 with Ovalbumin (Ovalbumin is the main protein found in egg white, commonly used to stimulate an immunological reaction in test animals) in PBS (5 micrograms/injection). On day 50, spleens of the mice were harvested (3 weeks after last boost with Ovalbumin). Cells were cultured (2×10^5/well in triplicate) and incubated with culture medium or test peptides—10 micrograms per ml—for 30 min. Thereafter, additional Ovalbumin was added to the cells at 10 micrograms/ml for in vitro restimulation of the cells. 72 hours later, cell supernatants were harvested and assayed using the Becton Dickinson Mouse Th1/Th2 Cytokine CBA Kit. This kit can be used to measure Interleukin-2 (IL-2), Interleukin-4 (IL-4), Interleukin-5 (IL-5), Interferon-γ (IFN-γ), and Tumor Necrosis Factor-α (TNF-α) protein levels in a single sample. The kit performance has been optimized for analysis of physiologically relevant concentrations (pg/ml levels) of specific cytokine proteins in tissue culture supernatants and serum samples.

[2] = test system: LPS-induced TNF-alpha production in human macrophages; assay: TNF alpha production assay; assay type: cell-based; conditions: 10 micrograms per ml; 30 min preincubation; lipopolysaccharide 200 ng/ml; overnight; ELISA
Text: Not stimulated macrophages served as negative background control.

[3] = test system: Primary Human endothelial cells (HUVEC); assay: Endothelial cell migration assay; assay type: cell-based; conditions: 10 micrograms per ml, 22 hours
Protocol: Thereafter, designated concentration of testing peptides—10 micrograms per ml—was added in duplicate wells.

HUVEC = assay: Endothelial tube formation assay; assay type: cell-based, human; conditions: 10 micrograms per ml, 20 hours, average tubule length
Text: Positive control was vehicle only.

Row | Compound | antiviral activity of positive control compound (HCMV) (HCMV strain AD169; positive control) | inhibition of HBV replication as compared to the virus control infection [1] | effect on the phagocytic activity of murine macrophages (increase) (RAW 264.7 cells) | IFNγ spleen cells; TH1 response (% of control) (spleen cells) | IL-2 spleen cells (% of control) (spleen cells) | IL-4 spleen cells; TH2 response (% of control) (spleen cells) | IL-5 spleen cells; TH2 response (% of control) (spleen cells) | TNF-a spleen cells; TH1 response (% of control) (spleen cells) | inhibition of the LPS-induced TNF-alpha production in human macrophages [2] | inhibition of the migration of human endothelial cells [3] [%] | inhibition of the tube formation of endothelial cells (HUVEC) [%] | inhibition of HCMV plaque formation as compared to the virus control (HCMV strain AD169)
1 | Nc1nc(O)c2ncn(COC(CO)CO)c2n1 [Ganciclovir, reference compound] | expected levels of antiviral activity |  |  |  |  |  |  |  |  |  |  | 
2 | AVPYPQR [peptide 1] |  | no effect | 22.9% | 52.4 % of control | 55.7 % of control | 0.0 % of control | 53.0 % of control | 86.6 % of control | 22.4% | 35 | 18 | did not inhibit
3 | Tyr-Pro-Ile-Ser-Leu-OH (YPISL-OH) [peptide 2] |  | 41.4% | no inhibitory or activating effect | 53.9 % of control | 124.0 % of control | 94.1 % of control | 86.6 % of control | 126.2 % of control | did not induced or inhibit |  | 100 | did not inhibit
